Reference: US10292385B2, “Method for supression of infection by plant virus” (priority 2014, dated 2019)

Legend:
adult whiteflies = test: Observation of adult whitefly survival after spraying compound A; type: in vivo, sweetpotato whiteflies; conditions: one week after spraying
Description: From the above, it is conceivable that the present invention greatly enhances the effect of suppressing plant virus infection attained by the compound A.

TYLCV = TYLCV infection suppression test on chemical-sprayed cherry tomatoes exposed to viruliferous adult sweetpotato whiteflies (Test Example 1); type: in vivo, tomato yellow leaf curl virus (TYLCV); conditions: for Percentage of TYLCV infection suppressed, Determined value: cherry tomato, 16 plants, PCR and symptom after 30 days
Description: Seedlings of cherry tomatoes (cultivar: ‘YellowPear’) were transferred to small pots and grown until 2- to 2.5-leaf stages. A chemical having been adjusted to a predetermined concentration by dilution was sprayed thereon in a sufficient amount (the amount was such that the chemical solution dripped from the leaves), and the plants on which the diluted chemical has been sprayed were dried under a shielded condition in a greenhouse. In an aluminum-made large test container (length×width×height =68×44×82 cm, the upper surface and four side surfaces thereof are present as mesh surfaces for aeration), 16 pots containing the chemical-sprayed cherry tomatoes were equally arranged, and installation stands for releasing adult sweetpotato whiteflies were arranged at two positions on a diagonal line in the container. Chemical-resistant adult sweetpotato whiteflies to chemicals such as organophosphorus insecticides, carbamate insecticides, synthetic pyrethroid insecticides, ecdysis regulating insecticides, and neonicotinoid insecticides (hereinafter, chemical resistant adult sweetpotato whiteflies is simply referred to as adult sweetpotato whiteflies) were released for 3 days to suck a cherry tomato for TYLCV acquisition, so that the whiteflies were acquired TYLCV. Note that the chemical-resistant sweetpotato whiteflies used were kindly provided from Kumamoto Agricultural Research Center. The cherry tomato leaves were cut out together with the adult sweetpotato whiteflies settled on the infected cherry tomato, and equally left on the two flying sources in the aluminum-made container. After the leaves wither up, the adult sweetpotato whiteflies spontaneously spread inside the test container. The adult sweetpotato whiteflies were equally scattered to the two flying sources such that the number of individuals released was approximately 1 or 2.5 per plant (e.g.: in the case where the number of the adult sweetpotato whitefly individuals is approximately 1 per plant, 8 whiteflies×2 positions=16 whiteflies in the test container). The release period was set to 7 days. In conducting the test, any test chemical was at a practical concentration. […]

Substance: glycerin diacetomonolaurate [compound A]
- survival of adult whiteflies after spraying (adult whiteflies): adult whiteflies survived one week thereafter
- Percentage of TYLCV infection suppressed, Corrected value (TYLCV; 1.0 whiteflies/plant, corrected with the untreatment of test plot 5): (50.0) %
- Percentage of TYLCV infection suppressed, Determined value (TYLCV; chemical-resistant adult sweetpotato whiteflies released 1.0 whiteflies/plant for 7 days): 62.5%
- Percentage of TYLCV infection suppressed, Determined value (TYLCV; chemical-resistant adult sweetpotato whiteflies released 2.5 whiteflies/plant for 7 days): 50.0%
- TYLCV infection suppressing effect (in words) (TYLCV; whiteflies released for 7 days on sprayed cherry tomato, corrected value compared with theoretical value): suppressed to some extent
